In US20260248763A1 (BIO GENUINE (SHANGHAI) BIOTECH CO., LTD, priority 2023, published 2026):

Target: T1, OTR (Homo sapiens, UniProt P30559)
T1 construct: expressed in transfected cells; host or cells: OTR/HEK293 stably transfected cell line
T1 sequence (P30559 1-389): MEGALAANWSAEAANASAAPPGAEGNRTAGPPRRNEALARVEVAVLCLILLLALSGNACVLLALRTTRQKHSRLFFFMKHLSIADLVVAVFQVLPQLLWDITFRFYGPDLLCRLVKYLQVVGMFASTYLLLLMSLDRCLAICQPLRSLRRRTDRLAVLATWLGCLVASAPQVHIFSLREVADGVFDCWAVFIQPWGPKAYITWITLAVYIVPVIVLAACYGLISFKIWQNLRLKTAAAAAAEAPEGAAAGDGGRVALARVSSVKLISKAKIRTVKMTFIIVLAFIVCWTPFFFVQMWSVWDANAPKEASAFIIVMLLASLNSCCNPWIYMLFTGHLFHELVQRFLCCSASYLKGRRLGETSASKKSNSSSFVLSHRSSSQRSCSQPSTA
Experiment: Ca2+ mobilization in cells stably expressing OTR (FLIPR, antagonist mode)
Assay type: cell-based
Conditions: OTR/HEK293 stably transfected cell line
Source text: Test Example 1. Determination of the Effect of the Compound of the Present Disclosure on Ca^2+ Mobilization in Cells Stably Expressing OTR
To measure the antagonistic effect of the compound of the present disclosure on OTR activity expressed in the OTR/HEK293 stably transfected cell line.
• DMEM medium (Invitrogen, 11965) • F12 medium (Invitrogen, 11765) • Fetal bovine serum (Excell, FSP500) • Geneticin (Invitrogen, 10131) • Penicillin/Streptomycin (Invitrogen, SV30010) • Fluo-4 Direct kit (Invitrogen, F10471) • 384-well cell plate (Greiner, 781090) • 384-well compound plate (Greiner, 781280)
• FLIPR instrument (Molecular Device) • EHCO instrument (Labcyte) • Cell counter (Beckman, Vi-cell XR)
The cultured cells were washed twice with pre-heated DPBS and digested with appropriate amount of trypsin at 37° C. for 1 minute, and then appropriate amount of culture medium was added to terminate digestion. The cells were centrifuged at 1000 rpm for 5 minutes. The supernatant was gently discarded without disturbing the cell pellet at the bottom. The cells were resuspended in culture medium and 1 mL was taken out for cell counting and viability assessment using Vi-CELL™. The cells were diluted to 1×10^6 cells/mL (20,000 cells/20 μL) with culture medium, seeded into a 384-well cell plate and incubated at 37° C. with 5% CO2 for 16-20 h.
Formulation of 250 mM Probenecid solution: according to the kit instructions, 1 mL of FLIPR buffer salt solution was added to 77 mg of probenecid, prepared fresh just before use. Formulation of Fluo-4 Direct™ (2×, 8 μM) loading buffer: according to the kit instructions, the required amount of Fluo-4 Direct™ was taken out and thawed in advance, 10 mL of FLIPR buffer salt solution and 0.2 mL of 250 mM Probenecid solution were added to each tube, and the mixture was vortexed in the dark for >5 minutes, prepared fresh just before use.
Preparation of agonist reference compound plate: the agonist was diluted 3-fold in 10 points using ECHO, and 750 nL was transferred to the corresponding compound plate using ECHO.
Preparation of reference and test compound plates: the test compound was diluted 3-fold in 10 points with ECHO, and 900 nL was transferred to the corresponding compound plate; the reference compound was diluted 3-fold in 10 points with assay buffer salt solution, and 30 μL was transferred to the compound plate.
30 μL of assay buffer salt solution was added to the corresponding compound plate, and the mixture was centrifuged at 1000 rpm for 1 minute.
The cell plate prepared the day before was taken out of the incubator, and 20 μL of 2×Fluo-4 Direct™ buffer was added to each well, with a total volume of 40 μL.
The plate was incubated in an incubator at 37° C. with 5% CO2 for 50 minutes, and then placed at room temperature for 10 minutes.
The compound plate, cell plate, and pipette tips were placed into the instrument.
For the agonist reference compound plate: the FLIPR instrument software was run, 10 μL of the pre-determined concentration of agonist reference compound was added to the cell plate following the preset protocol, and the fluorescence signal was read. After reading, the data were exported to calculate the EC80 for each cell line, and the agonist at 6×EC80 concentration was prepared.
For the compound plate: the FLIPR instrument software was run, 10 μL of the pre-determined concentration of test compound and the reference compound were added to the cell plate following the preset protocol, and the fluorescence signal was read. 10 μL of the reference compound agonist at 6×EC80 concentration was added to the cell plate, and the fluorescence signal was read. For antagonist detection of the compound, the data were exported using the “Max-Min” and “Read 1 to Maximum allowed” methods in the software, and the data were fitted using Prism.

Row | Structure (SMILES) | IC50 [nM]
1 | CO/N=C1/C[C@@H](CO)N(C(=O)c2cnc(-c3cccc(C)c3C)c(C(F)(F)F)n2)C1 [Example A0137] | 153
2 | CO/N=C1/CC[C@@H](CO)N(C(=O)c2ccc(-c3cccc(C#N)c3C)cc2)C1 [Example A0225, (S, Z)-4′-(2-(Hydroxymethyl)-5-(methoxyimino)piperidine-1-carbonyl)-2-methyl-[1,1′-biphenyl]-3-carbonitrile] | 483
3 | CO/N=C1/C[C@@H](CO)N(C(=O)c2ccc(-c3cccc(C#N)c3C)c(OCC3CC3)n2)C1 [Example A0188, (S, Z)-3-(2-(Cyclopropylmethoxy)-6-(2-(hydroxymethyl)-4-(methoxyimino)pyrrolidine-1-carbonyl)pyridin-3-yl)-2-methylbenzonitrile] | 43.9
4 | CO/N=C1/C[C@@H](CO)N(C(=O)c2ccc(-c3cccc(C#N)c3C(F)F)cc2)C1 [Example A0204, 2-(Difluoromethyl)-3-(4-[(2S, 4Z)-2-(hydroxymethyl)-4-(methoxyimino)pyrrolidine-1-carbonyl]phenyl)benzonitrile] | 156
5 | CO/N=C1/C[C@@H](CO)N(C(=O)c2cc(OC)c(-c3cccc(C#N)c3C)cn2)C1 [Example A0216, 3-(6-[(2S, 4Z)-2-(Hydroxymethyl)-4-(methoxyimino)pyrrolidine-1-carbonyl]-4-methoxypyridin-3-yl)-2-methylbenzonitrile] | 198
6 | CON=C1CC(C(=O)NCC(O)c2ccccc2)N(C(=O)c2ccc(-c3cccc(C#N)c3C)cc2)C1 (single isomer, unassigned) [Example A0229, (25, E)-1-(3′-Cyano-2′-methyl-[1,1′-biphenyl]-4-carbonyl)-N-(2-hydroxy-2-phenethyl)-4-(methoxyimino)pyrrolidine-2-carboxamide] | 122
7 | CO/N=C1\CC[C@@H](CO)N(C(=O)c2ccc(-c3cccc(C#N)c3C)cc2)C1 [Example A0234, (S, E)-4′-(2-(Hydroxymethyl)-5-(methoxyimino)piperidine-1-carbonyl)-2-methyl-[1,1′-biphenyl]-3-carbonitrile] | 242
8 | CNC(=O)[C@@H]1C/C(=N\OC)CN1C(=O)c1ccc(-c2cccc(C#N)c2C)cc1 [Example A0232, (S, E)-1-(3′-Cyano-2′-methyl-[1,1′-biphenyl]-4-carbonyl)-4-(methoxyimino)-N-methylpyrrolidine-2-carboxamide] | 394
9 | CO/N=C1\C[C@@H](CO)N(C(=O)c2ccc(-c3cccc(C)c3C)cc2C#N)C1 [Example A0153, 5-(2,3-Dimethylphenyl)-2-[(2S, 4E)-2-(hydroxymethyl)-4-(methoxyimino)pyrrolidine-1-carbonyl]benzonitrile] | 485
10 | CO/N=C1/C[C@@H](CO)N(C(=O)c2ccc(-c3cccc(C)c3C)c(C(=O)N3CCOCC3)c2)C1 [Example A0158, (25, 4Z)-(2′, 3′-Dimethyl-2-(morpholine-4-carbonyl)-[1, 1′-biphenyl]-4-yl)(2-(hydroxymethyl)-4-(methoxyimino)pyrrolidin-1-yl)methanone] | 1520
11 | COCCNc1nc(C(=O)N2C/C(=N\OC)C[C@H]2CO)ccc1-c1cccc(C#N)c1C [Example A0197, (S, Z)-3-(6-(2-(Hydroxymethyl)-4-(methoxyimino)pyrrolidine-1-carbonyl)-2-((2-methoxyethyl)amino)pyridin-3-yl)-2-methylbenzonitrile] | 403
12 | CO/N=C1/C[C@@H](CO)N(C(=O)c2ccc(-c3cccc(C)c3C)cc2C#N)C1 [Example A0131, 5-(2,3-Dimethylphenyl)-2-[(2S, 4Z)-2-(hydroxymethyl)-4-(methoxyimino)pyrrolidine-1-carbonyl]benzonitrile] | 172
13 | CO/N=C1\C[C@@H](CO)N(C(=O)c2ccc(-c3cccc(C#N)c3C)c(OC)n2)C1 [Example A0222, 3-(6-[(2S, 4E)-2-(Hydroxymethyl)-4-(methoxyimino)pyrrolidine-1-carbonyl]-2-methoxypyridin-3-yl)-2-methylbenzonitrile] | 112

Second part, the compound after the results:

Row | IC50 [nM] | Structure (SMILES)
14 | 295 | CO/N=C1\CN(C(=O)c2ccc(-c3ccccc3C)cc2)[C@@]2(CCNC2=O)C1 [Example C0039, (S, Z)-3-(Methoxyimino)-1-(2′-methyl-[1,1′-biphenyl]-4-carbonyl)-1,7-diazaspiro[4.4]nonan-6-one]
15 | 2940 | CON=C1C[C@@H](CO)N(C(=O)c2ccc3c(c2)COCc2c(C#N)cccc2-3)C1 (single isomer, unassigned) [Example C0142, (Z/E)-9-(2-(Hydroxymethyl)-4-(methoxyimino)pyrrolidine-1-carbonyl)-5,7-dihydrodibenzo[c,e]oxepine-4-carbonitrile]
16 | 7.43 | CO/N=C1/C[C@@H](CO)N(C(=O)c2ccc(-c3cccc(C(F)F)c3C)c3c2OCCO3)C1 [Example C0137, (S,Z)-(8-(3-(Difluoromethyl)-2-methylphenyl)-2,3-dihydrobenzo[b][1,4]dioxin-5-yl)(2-(hydroxymethyl)-4-(methoxyimino)pyrrolidin-1-yl)methanone]
17 | 40.5 | CO/N=C1/C[C@@H](CO)N(C(=O)c2ccc(-c3c(F)ccc(C#N)c3C)c3c2OCO3)C1 [Example C0139, 4-Fluoro-3-(7-((S,Z)-2-(hydroxymethyl)-4-(methoxyimino)pyrrolidine-1-carbonyl)benzo[d][1,3]dioxol-4-yl)-2-methylbenzonitrile]
18 | 98.1 | CO/N=C1\C[C@@H]([C@H](C)O)N(C(=O)c2ccc(-c3cccc(C#N)c3C)cc2)C1 (single isomer, unassigned) [Example C0110]
19 | 72 | CO/N=C1\C[C@@H](C(C)(C)O)N(C(=O)c2ccc(-c3cccc(C#N)c3C)cc2)C1 [Example C0163, (S,E)-4′-(2-(2-Hydroxypropan-2-yl)-4-(methoxyimino)pyrrolidine-1-carbonyl)-2-methyl-[1,1′-biphenyl]-3-carbonitrile]
20 | 628 | CO/N=C1\C[C@@H](CNC(=O)OC)N(C(=O)c2ccc(-c3ccccc3C)cc2)C1 [Example C0004, Methyl (S, E)-((4-(methoxyimino)-1-(2′-methyl-[1,1′-biphenyl]-4-carbonyl)pyrrolidin-2-yl)methyl)carbamate]
21 | 73.6 | CO/N=C1\C[C@@H](CO)N(C(=O)c2ccc(-c3cccc(C#N)c3C)cc2F)C1 [Example C0156, (S,E)-3′-Fluoro-4′-(2-(hydroxymethyl)-4-(methoxyimino)pyrrolidine-1-carbonyl)-2-methyl-[1,1′-biphenyl]-3-carbonitrile]
22 | 1790 | CO/N=C1\C[C@@H](CNC(=O)CO)N(C(=O)c2ccc(-c3ccccc3C)cc2)C1 [Example C0005, (S, E)-2-Hydroxy-N-((4-(methoxyimino)-1-(2′-methyl-[1,1′-biphenyl]-4-carbonyl)pyrrolidin-2-yl)methyl)acetamide]
23 | 1900 | CON=C1CN(C(=O)c2ccc(-c3ccccc3C)cc2)C2COCCN12 (mixture of isomers) [Example C0033, (EZ)-(3-(Methoxyimino)hexahydro-1H-imidazo[2,1-c][1,4]oxazin-1-yl)(2′-methyl-[1, 1′-biphenyl]-4-yl)methanone]
24 | 853 | CO/N=C1/C[C@@H](CO)N(C(=O)c2cnc(-c3ccccc3C)cn2)C1 [Example C0013, (S, Z)-(2-(Hydroxymethyl)-4-(methoxyimino)pyrrolidin-1-yl)(5-(o-tolyl)pyrazin-2-yl)methanone]
